Data on two compounds can be found in patent US8802623B2 (priority 2009, dated 2014).

Series [1] deals with IAV A/PR/8/34. On the set-up: species or system C57BL/6 mice. As to conditions: mouse, in vivo.
Series [2] has as its system A549 cells infected with IAV A/PR/8/34. Format: cell-based, human.
For series [3], the system named is IAV A/PR/8/34. Also noted: species or system C57BL/6 mice. Conditions: mouse, in vivo. This is another data set of the same source.
Series [4] relates to IAV A/PR/8/34. Format: cell-based, IAV A/PR/8/34 (H1N1).
For series [5] the following is noted: mouse, in vivo.

For the compound H-Thr-Phe-Leu-Leu-Arg-NH2 [TFLLR-NH2], in the series on IAV A/PR/8/34 [1], the “infectious virus loads in lungs” value is reported as “significantly increased infectious virus loads”. For the same compound, in series [2], the IL-6 release entry is recorded as “significantly increased”, the IL-8 release entry is “significantly increased” and the RANTES release entry is given as “significantly increased”. Moreover, the “IAV-induced death in mice” value in the series on IAV A/PR/8/34 [3] was “increased IAV-induced death”. Moreover, the “virus production in IAV-infected A549 cells” value in the series with IAV A/PR/8/34 [4] is “produced more viruses”. In series [5], the “side effect in uninfected mice (survival, weight)” value is on record as “not sensitive”.

`CC(C)c1ccc(Cn2ccc3c4c(N)nc(NC5CC5)nc4ccc32)cc1` [SCH79797]: the “infectious virus load in lungs” value in the series on IAV A/PR/8/34 [1] is recorded as “significantly decreased infectious virus load”. Further, in the series with IAV A/PR/8/34 [3], the “protection from IAV induced death, different concentrations” value is listed as “protected mice from IAV induced death in a dose-dependent manner” and the “protection from IAV-induced death at different pfu/mice” value is “protected mice from IAV-induced death”.
